These results are taken from patent US20250145566A1, “PHENETHYLAMINE DERIVATIVES, COMPOSITIONS, AND METHODS OF USE” (Cybin IRL Limited, priority 2022, published 2025).

“Also recorded” adds a separate entry of the source.

For one data set, the target named is T1, 5-HT2B (h) (Homo sapiens, UniProt P41595).
T1 construct: expressed in transfected cells; host or cells: CHO cells
The data set can be described thus: 5-HT2B (h) agonist effect, IP1 HTRF functional assay. The format is cell-based. The conditions noted are these: for agonist efficacy at 5-HT2B, in words: EMAX relative to 5-HT.

The next data set has as its target T2, MAO-B (Homo sapiens, UniProt P27338).
T2 construct: purchased Corning 456284
T2 sequence (P27338 1-520): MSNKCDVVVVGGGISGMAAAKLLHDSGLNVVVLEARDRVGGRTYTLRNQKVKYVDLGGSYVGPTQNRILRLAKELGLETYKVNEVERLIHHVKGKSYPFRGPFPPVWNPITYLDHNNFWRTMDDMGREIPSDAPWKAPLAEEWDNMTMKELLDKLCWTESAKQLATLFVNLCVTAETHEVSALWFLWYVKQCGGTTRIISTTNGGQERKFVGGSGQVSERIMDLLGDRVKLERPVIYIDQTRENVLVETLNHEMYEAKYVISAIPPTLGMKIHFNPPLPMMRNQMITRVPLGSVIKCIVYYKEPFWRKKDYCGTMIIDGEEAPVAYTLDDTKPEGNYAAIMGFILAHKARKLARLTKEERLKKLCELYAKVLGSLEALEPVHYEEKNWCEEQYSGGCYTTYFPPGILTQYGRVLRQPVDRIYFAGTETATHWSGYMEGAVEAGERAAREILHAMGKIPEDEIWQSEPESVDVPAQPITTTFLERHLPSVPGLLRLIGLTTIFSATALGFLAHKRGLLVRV
The data set can be described thus: human MAO-B in vitro metabolism. It is filed as in vitro ADME. The conditions noted are these: human MAO-B enzyme (Corning), test compound 1 μM, read-out: MAO-B t1/2. The method, then: In a different series of reactions using human MAO-A and MAO-B, a 10 mM stock solution of the test compound was prepared in DMSO. From this stock solution, an intermediate stock solution of 1 mM was prepared by diluting the compound in DMSO and from this intermediate stock solution, a working solution of 0.30 mM was prepared by diluting the compound in ACN:Water (50:50) as cocktail of 2 compounds (30 μL each compound in 40 μL diluent for 100 μL). Following this, a master mix of 0.1 M potassium phosphate buffer and test compound mixture i.e., the non-deuterated and the deuterated analog, were prepared to achieve final drug concentration of 1 μM (0.2% DMSO) for the required number of reactions. The aforementioned master mix was pre-incubated at 37° C. for 5 min. To this master mix, MAO-A (final protein conc. 0.1 mg/mL; Corning Cat #456283; Lot #1173003) or MAO-B (final protein conc. 0.1 mg/mL; Corning Cat #456284; Lot #0318001) was added to initiate the reaction. The samples were then incubated at 37° C. for the desired time points. At each time point (0, 5, 15, 30, 45, 60), 40 μL of the samples were withdrawn and reactions were stopped using 200 μL chilled ACN containing 0.1% formic acid and internal standard Carbamazepine (10 ng/mL). The samples were centrifuged, and the supernatant was analyzed by LC-MS/MS. The percent compound remaining at each time point was calculated with respect to that of the 0 min sample. The data were then analyzed to calculate half-life and intrinsic clearance (CLint). Blank samples were prepared using DMSO (without the test compound).

The target of another data set is T3, Serotonin transporter (Rattus norvegicus, UniProt P31652).
T3 construct: from tissue
The data set is described as follows: Serotonin transporter uptake, rat brain synaptosomes. The format is biochemical. The conditions noted are these: for selectivity for blocking 5-HT reuptake relative to NE and DA, in words / selectivity for inhibiting SERT relative to DAT and NET: uptake inhibition.

Data set [1] addresses Norepinephrine transporter (Homo sapiens, UniProt P23975). The data set can be described thus: Norepinephrine transporter uptake (h). It is filed as cell-based.
The next data set has as its target Dopamine transporter (Homo sapiens, UniProt Q01959). The data set is described as follows: Dopamine transporter uptake (h). The format is cell-based.
The next data set relates to Rat Liver Microsomes. The data set is described as follows: Rat liver microsomes (RLM) in vitro metabolism. It is filed as in vitro ADME. As to conditions: result in words. As for the experimental part:
(§1) Rat Liver Microsomes (RLM). Male Sprague-Dawley rat liver microsomes were purchased from XenoTech. The reaction mixture, minus NADPH, was prepared as described in Table 10. The test compound was added into the reaction mixture at a final concentration of 1 μM. The control compound, testosterone, was run simultaneously with the test compound in a separate reaction. The reaction mixture (without cofactor) was equilibrated in a shaking water bath at 37° C. for 5 minutes. The reaction was initiated by the addition of the cofactor, and the mixture was incubated in a shaking water bath at 37° C. Aliquots (150 μL) were withdrawn at 0, 5, 10, 20, 30, 60, and for some assays at 120 minutes. Test compound and testosterone samples were immediately combined with 150 μL of ice-cold acetonitrile (ACN) containing 0.1% formic acid and internal standard to terminate the reaction. The samples were then mixed and centrifuged to precipitate proteins. All samples were assayed by LC-MS/MS using electrospray ionization. The peak area response ratio (PARR) of analyte to internal standard at each time point was compared to the PARR at time 0 to determine the percent remaining at each time point. Half-lives were calculated using GraphPad software, fitting to a single-phase exponential decay equation.
(§2) In a different series of reactions using RLM, a 10 mM stock solution of the test compound was prepared in DMSO. From this stock solution, an intermediate stock solution of 1 mM was prepared by diluting the compound in DMSO and from this intermediate stock solution, a working solution of 0.30 mM was prepared by diluting the compound in ACN:Water (50:50) as a cocktail of two compounds (i.e., 30 μL the non-deuterated and the deuterated compound in 40 μL diluent in 100 μL total volume). Following this, a master mix of rat liver microsomes (final concentration 0.5 mg/ml, Xenotech Cat #R1000; Lot #1610290) and 0.1 M potassium phosphate buffer was prepared and pre-incubated for 5 min at 37° C. The test compound mixture was then added to achieve a final test article concentration of 1 μM (for each analog if co-dosed; 0.2% DMSO); verapamil was used as a positive control. Subsequently, 10 mM NADPH prepared in 0.1 M potassium phosphate buffer was added (final concentration 1 mM) to initiate the reaction and samples were incubated at 37° C. for the desired time points (0, 5, 15, 30, 45, 60 min). At each time point, 40 μL of the samples were withdrawn and reactions were stopped using 200 μL chilled ACN containing 0.1% formic acid and internal standard carbamazepine (10 ng/mL). The samples were centrifuged, and the supernatant was analyzed by LC-MS/MS. The percent compound remaining at each time point was calculated with respect to that of the 0 min sample. The data were then analyzed to calculate half-life. Blank samples were prepared using DMSO (without the test compound).

Data set [2] can be described thus: Rat liver microsomes (RLM) in vitro metabolism. As to conditions: Sprague-Dawley, pH 7.4; rat liver microsomes, test compound 1 μM; * = apparent NADPH independent reaction; read-out: RLM t1/2. The format is in vitro ADME. As for the experimental part:
as §1, §2

T1 sequence (P41595 whole entry): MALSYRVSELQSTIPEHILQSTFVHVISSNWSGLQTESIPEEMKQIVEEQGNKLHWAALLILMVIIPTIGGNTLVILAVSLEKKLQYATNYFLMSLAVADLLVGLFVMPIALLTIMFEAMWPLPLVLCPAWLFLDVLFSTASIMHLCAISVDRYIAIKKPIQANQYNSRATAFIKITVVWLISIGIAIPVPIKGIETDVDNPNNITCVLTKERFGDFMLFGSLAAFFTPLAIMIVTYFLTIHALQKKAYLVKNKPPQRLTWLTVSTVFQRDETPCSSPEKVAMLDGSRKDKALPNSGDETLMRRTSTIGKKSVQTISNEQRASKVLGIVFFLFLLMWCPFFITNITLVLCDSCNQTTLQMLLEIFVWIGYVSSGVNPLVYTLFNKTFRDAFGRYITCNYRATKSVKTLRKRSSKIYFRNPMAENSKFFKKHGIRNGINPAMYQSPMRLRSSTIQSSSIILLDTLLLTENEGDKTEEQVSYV
Chain of Norepinephrine transporter (P23975 whole entry): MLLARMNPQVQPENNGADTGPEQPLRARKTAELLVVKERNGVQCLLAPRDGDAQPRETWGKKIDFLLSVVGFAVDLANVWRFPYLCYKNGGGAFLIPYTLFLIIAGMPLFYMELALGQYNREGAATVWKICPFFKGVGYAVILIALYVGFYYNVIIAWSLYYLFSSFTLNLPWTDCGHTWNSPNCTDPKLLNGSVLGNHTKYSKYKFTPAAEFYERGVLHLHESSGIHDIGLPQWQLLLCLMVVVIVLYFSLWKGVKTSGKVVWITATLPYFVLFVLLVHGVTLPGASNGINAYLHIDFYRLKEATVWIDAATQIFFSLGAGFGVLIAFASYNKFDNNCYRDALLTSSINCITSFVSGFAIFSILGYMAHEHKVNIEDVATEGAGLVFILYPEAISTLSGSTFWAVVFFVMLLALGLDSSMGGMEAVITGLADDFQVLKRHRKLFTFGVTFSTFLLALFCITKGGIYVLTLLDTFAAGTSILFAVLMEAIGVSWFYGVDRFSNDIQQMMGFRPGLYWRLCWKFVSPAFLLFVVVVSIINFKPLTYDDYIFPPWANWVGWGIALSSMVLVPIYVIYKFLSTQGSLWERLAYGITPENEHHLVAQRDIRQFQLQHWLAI
T3 sequence (P31652 whole entry): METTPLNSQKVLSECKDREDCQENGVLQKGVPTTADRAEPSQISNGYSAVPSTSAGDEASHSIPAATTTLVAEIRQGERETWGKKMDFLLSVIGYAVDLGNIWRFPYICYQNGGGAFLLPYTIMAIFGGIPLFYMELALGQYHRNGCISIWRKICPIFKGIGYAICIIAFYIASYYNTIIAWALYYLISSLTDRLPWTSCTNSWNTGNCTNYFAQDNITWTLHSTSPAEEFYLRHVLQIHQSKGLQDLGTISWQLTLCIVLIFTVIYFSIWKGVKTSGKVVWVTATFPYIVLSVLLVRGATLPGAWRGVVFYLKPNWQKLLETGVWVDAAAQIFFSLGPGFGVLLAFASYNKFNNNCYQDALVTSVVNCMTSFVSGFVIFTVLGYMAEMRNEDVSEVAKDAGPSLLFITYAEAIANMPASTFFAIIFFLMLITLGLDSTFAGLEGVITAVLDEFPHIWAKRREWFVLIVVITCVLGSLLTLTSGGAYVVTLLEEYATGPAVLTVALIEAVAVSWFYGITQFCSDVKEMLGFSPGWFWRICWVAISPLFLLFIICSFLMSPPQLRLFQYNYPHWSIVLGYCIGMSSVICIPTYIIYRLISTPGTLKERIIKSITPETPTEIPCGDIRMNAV
Chain of Dopamine transporter (Q01959 whole entry): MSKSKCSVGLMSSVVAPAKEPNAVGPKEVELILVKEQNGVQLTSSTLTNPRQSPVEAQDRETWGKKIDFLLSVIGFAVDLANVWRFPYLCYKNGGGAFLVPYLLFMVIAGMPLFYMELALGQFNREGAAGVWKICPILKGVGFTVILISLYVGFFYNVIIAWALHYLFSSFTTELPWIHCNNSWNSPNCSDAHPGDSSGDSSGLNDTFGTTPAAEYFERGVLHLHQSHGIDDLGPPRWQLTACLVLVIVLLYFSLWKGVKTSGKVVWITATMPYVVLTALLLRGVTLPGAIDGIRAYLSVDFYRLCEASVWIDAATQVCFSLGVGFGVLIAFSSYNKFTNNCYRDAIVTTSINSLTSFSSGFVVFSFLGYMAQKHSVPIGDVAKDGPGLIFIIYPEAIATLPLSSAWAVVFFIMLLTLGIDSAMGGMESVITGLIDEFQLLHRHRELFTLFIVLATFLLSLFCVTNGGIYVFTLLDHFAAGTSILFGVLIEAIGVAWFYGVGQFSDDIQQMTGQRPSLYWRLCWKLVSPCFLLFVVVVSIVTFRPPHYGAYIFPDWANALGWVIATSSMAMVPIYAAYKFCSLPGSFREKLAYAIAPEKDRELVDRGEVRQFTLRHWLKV

`NCCc1ccc2c(c1)OCS2` [II-14, 2-(benzo[d][1,3]oxathiol-6-yl)ethan-1-amine]: the EC50 at 5-HT2B (h) was < 0.75 µM. Also, the maximum response (Emax) at 10 µM on 5-HT2B (h) (at 10 μM, relative to 5-HT, read-out: Function 5-HT2B EMAX) worked out at 100%. Also, at 5-HT2B (h) (tested at 1, 3, 10, 100 μM), the “Function 5-HT2B (Gq-IP1, efficacy relative to 5-HT), agonist type” value is recorded as “Full agonist -” and the “agonist efficacy at 5-HT2B, in words” value is listed as “nearly full or full agonist; also recorded: full agonists”. At MAO-B, the half-life at 1 µM was < 5 min. In addition, on Serotonin transporter, the IC50 is ~0.5 µM; the “selectivity for blocking 5-HT reuptake relative to NE and DA, in words” value is “selectivity (higher potency) for blocking 5-HT reuptake relative to NE and DA”; the “selectivity for inhibiting SERT relative to DAT and NET” value is reported as ~5 fold. Moreover, the “Function SERT, inhibition of SERT” value on Serotonin transporter (from 3 to 100 μM) is recorded as 98.5-107.9%,. For the same compound, at Serotonin transporter (tested at 1, 3, 10, 100 μM), the “Function SERT (blocking reuptake of 5-HT), efficacy in words” value was “Full efficacy,” and the “efficacy for blocking 5-HT uptake through SERT, in words” value was “full efficacy”. In data set [1], the IC50 was ~5 µM. Besides, in data set [1] (at 100 μM, read-out: Function NET, inhibition of NET), the inhibition at 100 µM amounted to 92.9%. For the same compound, in data set [1] (tested at 1, 10, 100 μM), the “Function NET (blocking reuptake of NE), efficacy in words” value is “Near full efficacy,” and the “efficacy for blocking NE uptake through NET, in words” value is given as “full efficacy”. For the same compound, the IC50 at Dopamine transporter (Function DAT Estimated IC50, blocking reuptake of DA) is ~10 µM. The inhibition at 100 µM on Dopamine transporter (at 100 μM, read-out: Function DAT, inhibition of DAT) was 95%. Also, at Dopamine transporter (tested at 1, 10, 100 μM), the “Function DAT (blocking reuptake of DA), efficacy in words” value is recorded as “Near full efficacy,” and the “efficacy for blocking DA uptake through DAT, in words” value is reported as “full efficacy”. Moreover, the “disappearance in RLM, NADPH dependence” value with Rat Liver Microsomes is “NADPH-independent”. The half-life at 1 µM in data set [2] is < 5 min.
As to `CC(N)Cc1ccc2c(c1)OCS2` (stereo not drawn) [II-16, 1-(benzo[d][1,3]oxathiol-6-yl)propan-2-amine], at 5-HT2B (h) (tested at 1, 3, 10, 100 μM), the “agonist efficacy at 5-HT2B, in words” value is on record as “nearly full or full agonist; also recorded: full agonists”. Also, on MAO-B, the half-life at 1 µM is 857 min. Moreover, the “efficacy for blocking 5-HT uptake through SERT, in words” value at Serotonin transporter (tested at 1, 3, 10, 100 μM) is listed as “full efficacy”. Besides, at Serotonin transporter, the “selectivity for blocking 5-HT reuptake relative to NE and DA, in words” value is “selectivity (higher potency) for blocking 5-HT reuptake relative to NE and DA”; the “selectivity for inhibiting SERT relative to DAT and NET” value is ~5 fold. In data set [1] (tested at 1, 10, 100 μM), the “efficacy for blocking NE uptake through NET, in words” value was “full efficacy”. On Dopamine transporter (tested at 1, 10, 100 μM), the “efficacy for blocking DA uptake through DAT, in words” value is listed as “full efficacy”. For the same compound, in the data set with Rat Liver Microsomes, the “disappearance in RLM, NADPH dependence” value is recorded as “NADPH-independent”. In addition, the half-life at 1 µM in data set [2] is 11.7 min.
